# Tested on: HIV-IIIb
# Test: Test A: Antiviral Assay in MT4 Cells
# Type: cell-based
# Details: Human immunodeficiency virus 1, IIIB, MT4, 120 h, Table 2; MT-4 cells infected with HIV-IIIb, 5 days of incubation, CellTiter-Glo; read-out: EC50
# Procedure, shortened: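 MT-4 cells pre-infected with HIV-IIIb (0.004 m.o.i.) at 37 °C, then exposed to 3-fold serial compound dilutions (10 concentrations, quadruplicate) in RPMI 1640/10% FBS. After 5 days at 37 °C, viability read by CellTiter-Glo luminescence.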
row,Compound,EC50
1,Cc1cc2nc(N3CCc4ccncc4C3)sc2c(-c2ccc(Cl)cc2)c1[C@H](OC(C)(C)C)C(=O)O [Compound 434],42 nM
2,Cc1cc2nc(N3CCc4cnccc4C3)sc2c(-c2ccc(Cl)cc2)c1[C@H](OC(C)(C)C)C(=O)O [Compound 435],39 nM
3,Cc1cc2nc(N3Cc4ccccc4C(F)(F)C3)sc2c(-c2ccc(Cl)cc2)c1[C@H](OC(C)(C)C)C(=O)O [Compound 436],67 nM
4,Cc1cc2nc(N3CC[C@@H]4CCCC[C@@H]4C3)sc2c(-c2ccc(Cl)cc2)c1[C@H](OC(C)(C)C)C(=O)O [Compound 437],309 nM
5,Cc1cc2nc(N3CC[C@H]4CCCC[C@@H]4C3)sc2c(-c2ccc(Cl)cc2)c1[C@H](OC(C)(C)C)C(=O)O [Compound 438],258 nM
6,Cc1cc2nc(N3Cc4ccccc4C3)sc2c(-c2ccc(Cl)cc2)c1[C@H](OC(C)(C)C)C(=O)O [Compound 439],20 nM
7,Cc1cc2nc(N3CCc4nn(C)c(C)c4C3)sc2c(-c2ccc(Cl)cc2)c1[C@H](OC(C)(C)C)C(=O)O [Compound 440],11 nM
8,Cc1cc2nc(N3CCc4c(c(C)nn4C)C3)sc2c(-c2ccc(Cl)cc2)c1[C@H](OC(C)(C)C)C(=O)O [Compound 441],4 nM
9,Cc1cc2nc(N3CCn4c(C)nnc4C3)sc2c(-c2ccc(Cl)cc2)c1[C@H](OC(C)(C)C)C(=O)O [Compound 442],1160 nM
10,Cc1cc2nc(-c3ccnc(-c4ccc5c(c4)c(C)nn5C)c3)sc2c(-c2ccc(Cl)cc2)c1[C@H](OC(C)(C)C)C(=O)O [Compound 443],24 nM
11,Cc1cc2nc(-c3ccnc(-c4ccc5ccn(C)c(=O)c5c4)c3)sc2c(-c2ccc(Cl)cc2)c1[C@H](OC(C)(C)C)C(=O)O [Compound 448],9 nM
12,Cc1cc2nc(-c3ccnc(-c4ccc5cc[nH]c(=O)c5c4)c3)sc2c(-c2ccc(Cl)cc2)c1[C@H](OC(C)(C)C)C(=O)O [Compound 449],30 nM
13,Cc1cc2nc(-n3ccc4cnccc4c3=O)sc2c(-c2ccc(Cl)cc2)c1[C@H](OC(C)(C)C)C(=O)O [Compound 450],25 nM
14,COc1ccc2ccc(-c3cc(-c4nc5cc(C)c([C@H](OC(C)(C)C)C(=O)O)c(-c6ccc(Cl)cc6)c5s4)ccn3)cc2n1 [Compound 451],86 nM
15,Cc1cc2nc(-c3ccnc(-c4ccc5ccc(=O)n(C)c5c4)c3)sc2c(-c2ccc(Cl)cc2)c1[C@H](OC(C)(C)C)C(=O)O [Compound 452],16 nM
16,COc1ccc2cc(-c3cc(-c4nc5cc(C)c([C@H](OC(C)(C)C)C(=O)O)c(-c6ccc(Cl)cc6)c5s4)ccn3)ccc2n1 [Compound 457],96 nM
17,"CCC(CC)N1CCN(c2nccc(-c3nc4cc(C)c([C@H](OC(C)(C)C)C(=O)O)c(-c5ccc(Cl)cc5)c4s3)n2)CC1 [Compound 464, (S)-2-tert-butoxy-2-(7-(4-chlorophenyl)-5-methyl-2-(2-(4-(pentan-3-yl)piperazin-1-yl)pyrimidin-4-yl)benzo[d]thiazol-6-yl)acetic acid]",12 nM
18,"Cc1cc2nc(-c3ccnc(N4CCN(C(C)(C)C)CC4)n3)sc2c(-c2ccc(Cl)cc2)c1[C@H](OC(C)(C)C)C(=O)O [Compound 465, (S)-2-tert-butoxy-2-(2-(2-(4-tert-butylpiperazin-1-yl)pyrimidin-4-yl)-7-(4-chlorophenyl)-5-methylbenzo[d]thiazol-6-yl)acetic acid]",2 nM
19,"Cc1cc2nc(-c3ccnc(N4CCN(C(C)C)C[C@H]4C)n3)sc2c(-c2ccc(Cl)cc2)c1[C@H](OC(C)(C)C)C(=O)O [Compound 466, (S)-2-tert-butoxy-2-(7-(4-chlorophenyl)-2-(2-((R)-4-isopropyl-2-methylpiperazin-1-yl)pyrimidin-4-yl)-5-methylbenzo[d]thiazol-6-yl)acetic acid]",5 nM
20,"Cc1cc2nc(-c3ccnc(N4CCN(C)[C@@H](C)C4)n3)sc2c(-c2ccc(Cl)cc2)c1[C@H](OC(C)(C)C)C(=O)O [Compound 468, (S)-2-tert-butoxy-2-(7-(4-chlorophenyl)-2-(2-((S)-3,4-dimethylpiperazin-1-yl)pyrimidin-4-yl)-5-methylbenzo[d]thiazol-6-yl)acetic acid]",8 nM
21,"Cc1cc2nc(-c3ccnc(N4CCN(C)[C@H](C)C4)n3)sc2c(-c2ccc(Cl)cc2)c1[C@H](OC(C)(C)C)C(=O)O [Compound 469, (S)-2-tert-butoxy-2-(7-(4-chlorophenyl)-2-(2-((R)-3,4-dimethylpiperazin-1-yl)pyrimidin-4-yl)-5-methylbenzo[d]thiazol-6-yl)acetic acid]",8 nM
22,"Cc1cc2nc(-c3ccnc(N4CCN(C(C)C)[C@@H](C)C4)n3)sc2c(-c2ccc(Cl)cc2)c1[C@H](OC(C)(C)C)C(=O)O [Compound 470, (S)-2-tert-butoxy-2-(7-(4-chlorophenyl)-2-(2-((S)-4-isopropyl-3-methylpiperazin-1-yl)pyrimidin-4-yl)-5-methylbenzo[d]thiazol-6-yl)acetic acid]",3 nM
23,"Cc1cc2nc(-c3ccnc(N4CCN(C(C)C)[C@H](C)C4)n3)sc2c(-c2ccc(Cl)cc2)c1[C@H](OC(C)(C)C)C(=O)O [Compound 471, (S)-2-tert-butoxy-2-(7-(4-chlorophenyl)-2-(2-((R)-4-isopropyl-3-methylpiperazin-1-yl)pyrimidin-4-yl)-5-methylbenzo[d]thiazol-6-yl)acetic acid]",3 nM
24,"Cc1cc2nc(-c3ccnc(N4CCN(C(=O)N(C)C)CC4)n3)sc2c(-c2ccc(Cl)cc2)c1[C@H](OC(C)(C)C)C(=O)O [Compound 472, (S)-2-tert-butoxy-2-(7-(4-chlorophenyl)-2-(2-(4-(dimethylcarbamoyl)piperazin-1-yl)pyrimidin-4-yl)-5-methylbenzo[d]thiazol-6-yl)acetic acid]",4 nM
25,"CCN1CCN(c2nccc(-c3nc4cc(C)c([C@H](OC(C)(C)C)C(=O)O)c(-c5ccc(Cl)cc5)c4s3)n2)CC1=O [Compound 473, (S)-2-tert-butoxy-2-(7-(4-chlorophenyl)-2-(2-(4-ethyl-3-oxopiperazin-1-yl)pyrimidin-4-yl)-5-methylbenzo[d]thiazol-6-yl)acetic acid]",8 nM
26,"Cc1cc2nc(-c3ccnc(N4CCN(C(C)C(F)(F)F)CC4)n3)sc2c(-c2ccc(Cl)cc2)c1[C@H](OC(C)(C)C)C(=O)O (stereo partly drawn) [Compound 474, (2S)-2-tert-butoxy-2-(7-(4-chlorophenyl)-5-methyl-2-(2-(4-((2R/2S)-1,1,1-trifluoropropan-2-yl)piperazin-1-yl)pyrimidin-4-yl)benzo[d]thiazol-6-yl)acetic acid]",40 nM
27,"CCN1CCN(c2nccc(-c3nc4cc(C)c([C@H](OC(C)(C)C)C(=O)O)c(-c5ccc(Cl)cc5)c4s3)n2)CC1 [Compound 475, (S)-2-tert-butoxy-2-(7-(4-chlorophenyl)-2-(2-(4-ethylpiperazin-1-yl)pyrimidin-4-yl)-5-methylbenzo[d]thiazol-6-yl)acetic acid]",6 nM
28,"Cc1cc2nc(-c3ccnc(N4CCNCC4)n3)sc2c(-c2ccc(Cl)cc2)c1[C@H](OC(C)(C)C)C(=O)O [Compound 476, (S)-2-tert-butoxy-2-(7-(4-chlorophenyl)-5-methyl-2-(2-(piperazin-1-yl)pyrimidin-4-yl)benzo[d]thiazol-6-yl)acetic acid]",128 nM
29,"Cc1cc2nc(-c3ccnc(N4CCCN(C)CC4)n3)sc2c(-c2ccc(Cl)cc2)c1[C@H](OC(C)(C)C)C(=O)O [Compound 477, (S)-2-tert-butoxy-2-(7-(4-chlorophenyl)-5-methyl-2-(2-(4-methyl-1,4-diazepan-1-yl)pyrimidin-4-yl)benzo[d]thiazol-6-yl)acetic acid]",14 nM

# The next lines start with the values.
row,EC50,Compound
1,38 nM,Cc1cc2nc(N3CCc4cccnc4C3)sc2c(-c2ccc(Cl)cc2)c1[C@H](OC(C)(C)C)C(=O)O [Compound 433]
2,10 nM,CNc1nn(C)c2ccc(-c3nc4cc(C)c([C@H](OC(C)(C)C)C(=O)O)c(-c5ccc(Cl)cc5)c4s3)cc12 [Compound 444]
3,5 nM,CNc1nn(C)c2cc(-c3nc4cc(C)c([C@H](OC(C)(C)C)C(=O)O)c(-c5ccc(Cl)cc5)c4s3)ccc12 [Compound 445]
4,173 nM,Cc1cc2nc(-c3ccc4c(c3)OCCO4)sc2c(-c2ccc(Cl)cc2)c1[C@H](OC(C)(C)C)C(=O)O [Compound 446]
5,5 nM,Cc1cc2nc(-c3ccnc(-n4ccc5ncccc5c4=O)c3)sc2c(-c2ccc(Cl)cc2)c1[C@H](OC(C)(C)C)C(=O)O [Compound 447]
6,36 nM,Cc1cc2nc(-c3ccnc(-c4ccc5ccc(=O)[nH]c5c4)c3)sc2c(-c2ccc(Cl)cc2)c1[C@H](OC(C)(C)C)C(=O)O [Compound 453]
7,18 nM,Cc1cc2nc(-c3ccnc(-c4cnc5c(c4)n(C)c(=O)n5C)c3)sc2c(-c2ccc(Cl)cc2)c1[C@H](OC(C)(C)C)C(=O)O [Compound 454]
8,17 nM,Cc1cc2nc(-c3ccc4c(c3)c(=O)n(C)n4C)sc2c(-c2ccc(Cl)cc2)c1[C@H](OC(C)(C)C)C(=O)O [Compound 455]
9,20 nM,Cc1cc2nc(-c3ccnc(N4CC5CCCCN5C4=O)c3)sc2c(-c2ccc(Cl)cc2)c1[C@H](OC(C)(C)C)C(=O)O (some centres unmarked) [Compound 456]
10,5 nM,Cc1cc2nc(-c3ccnc(-n4ccc5ccncc5c4=O)c3)sc2c(-c2ccc(Cl)cc2)c1[C@H](OC(C)(C)C)C(=O)O [Compound 458]
11,28 nM,Cc1cc2nc(-c3ccnc(-c4ccc5[nH]c(=O)ccc5c4)c3)sc2c(-c2ccc(Cl)cc2)c1[C@H](OC(C)(C)C)C(=O)O [Compound 459]
12,31 nM,Cc1cc2nc(-c3ccnc(-n4ccn5cccc5c4=O)c3)sc2c(-c2ccc(Cl)cc2)c1[C@H](OC(C)(C)C)C(=O)O [Compound 460]
13,14 nM,Cc1cc2nc(-c3ccnc(-c4ccc5c(c4)c(=O)n(C)n5C)c3)sc2c(-c2ccc(Cl)cc2)c1[C@H](OC(C)(C)C)C(=O)O [Compound 461]
14,42 nM,Cc1cc2nc(-c3ccnc(-n4ccc5ccccc5c4=O)c3)sc2c(-c2ccc(Cl)cc2)c1[C@H](OC(C)(C)C)C(=O)O [Compound 462]
15,52 nM,Cc1cc2nc(-c3ccnc(-c4ccc5c(c4)[nH]c(=O)n5C)c3)sc2c(-c2ccc(Cl)cc2)c1[C@H](OC(C)(C)C)C(=O)O [Compound 463]
